How the values were obtained:
[1] = molecular target: Phospho-KIT (Tyr719) in GIST430 cells (Homo sapiens, UniProt P10721); experiment: GIST430 KIT Western Blot; assay type: cell-based; details: 4 hours, read-out: pKIT suppression by western blot analysi GIST430
Experimental: (§1) GIST48, GIST430, and GIST882 cells were obtained from J. Fletcher (Brigham and Women's Hospital, Boston, Mass.). GIST T1 cells were obtained from B. Rubin (Cleveland Clinic, Cleveland, Ohio) and Professor Takahiro Taguchi (Kochi Medical School, Nankoku, Kochi, Japan). […] GIST430 cells were grown in Ham's F10 medium supplemented with 15% characterized fetal bovine serum (Invitrogen, Carlsbad, Calif.), 30 mg/L bovine pituitary extract (BD Biosciences, San Jose, Calif.), 0.5% Mito+ serum extender (BD Biosciences, San Jose, Calif.), 1 unit/mL penicillin G, 1 μg/ml streptomycin, and 0.29 mg/mL L-glutamine at 37° C., 5% CO2, 95% humidity. GIST T1 cells were grown in DMEM medium supplemented with 10% characterized fetal bovine serum (Invitrogen, Carlsbad, Calif.), 1 unit/mL penicillin G, 1 ng/ml streptomycin, and 0.29 mg/mL L-glutamine at 37° C., 5% CO2, and 95% humidity. Cells were allowed to expand until reaching 70-95% confluence at which point they were subcultured or harvested for assay use.
(§2) One hundred fifty thousand cells were added per well in a 24-well tissue-culture treated plate. Cells were then incubated overnight at 37° C., 5% CO2, 95% humidity. Medium was aspirated, cells were washed with PBS, and serum-free Ham's F10 medium was added. A serial dilution of test compound was added to plates containing cells and plates were incubated for 4 hours at 37° C., 5% CO2, 95% humidity. Cells were washed with PBS, then lysed. Cell lysates were separated by SDS-PAGE and transferred to PVDF. Phospho-KIT (Tyr719) was detected using an antibody from Cell Signaling Technology (Beverly, Mass.), ECL Plus detection reagent (GE Healthcare, Piscataway, N.J.) and a Molecular Devices Storm 840 phosphorimager in fluorescence mode. Blots were stripped and probed for total KIT using an antibody from Santa Cruz Biotech (Santa Cruz, Calif.). IC50 values were calculated using Prism software (Graphpad, San Diego, Calif.).

[2] = molecular target: Phospho-KIT (Tyr719) in GIST48 cells (Homo sapiens, UniProt P10721); experiment: GIST48 KIT Western Blot; assay type: cell-based; details: 4 hours, read-out: pKIT suppression by western blot analysi GIST48
Phospho-KIT (Tyr719) in GIST48 cells, sequence (P10721 whole entry V560D/D820A, form open): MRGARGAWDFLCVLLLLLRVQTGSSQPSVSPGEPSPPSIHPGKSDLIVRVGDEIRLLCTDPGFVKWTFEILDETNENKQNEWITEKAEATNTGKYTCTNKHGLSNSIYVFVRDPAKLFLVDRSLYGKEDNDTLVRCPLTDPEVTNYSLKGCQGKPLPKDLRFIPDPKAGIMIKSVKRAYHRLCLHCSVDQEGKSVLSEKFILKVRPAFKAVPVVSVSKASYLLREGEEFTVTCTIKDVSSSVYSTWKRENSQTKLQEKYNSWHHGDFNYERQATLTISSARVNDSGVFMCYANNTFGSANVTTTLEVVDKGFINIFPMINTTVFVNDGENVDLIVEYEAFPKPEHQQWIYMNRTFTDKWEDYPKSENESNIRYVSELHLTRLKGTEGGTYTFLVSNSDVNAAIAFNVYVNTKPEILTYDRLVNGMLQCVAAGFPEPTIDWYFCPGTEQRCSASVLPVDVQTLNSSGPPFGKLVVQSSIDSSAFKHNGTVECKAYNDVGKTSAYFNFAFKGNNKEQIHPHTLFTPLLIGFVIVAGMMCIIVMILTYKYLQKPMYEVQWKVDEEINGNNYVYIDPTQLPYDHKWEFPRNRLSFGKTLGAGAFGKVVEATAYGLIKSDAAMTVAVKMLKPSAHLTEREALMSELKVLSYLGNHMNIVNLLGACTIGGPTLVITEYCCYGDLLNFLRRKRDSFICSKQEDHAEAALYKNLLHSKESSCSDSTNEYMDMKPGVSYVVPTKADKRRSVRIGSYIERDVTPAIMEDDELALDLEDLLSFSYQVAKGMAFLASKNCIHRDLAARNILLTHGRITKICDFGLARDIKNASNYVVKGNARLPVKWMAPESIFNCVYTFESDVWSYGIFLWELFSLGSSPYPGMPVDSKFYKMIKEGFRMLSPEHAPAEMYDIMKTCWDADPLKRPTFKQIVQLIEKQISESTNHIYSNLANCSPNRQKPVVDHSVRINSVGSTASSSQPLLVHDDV
Experimental: as §1
as §2, with “Two” for “One”, “RPMI1640” for “Ham's F10”

Phospho-KIT (Tyr719) in GIST430 cells, sequence (P10721 with tags, fused parts or gaps DEL560-576/V654A, form open): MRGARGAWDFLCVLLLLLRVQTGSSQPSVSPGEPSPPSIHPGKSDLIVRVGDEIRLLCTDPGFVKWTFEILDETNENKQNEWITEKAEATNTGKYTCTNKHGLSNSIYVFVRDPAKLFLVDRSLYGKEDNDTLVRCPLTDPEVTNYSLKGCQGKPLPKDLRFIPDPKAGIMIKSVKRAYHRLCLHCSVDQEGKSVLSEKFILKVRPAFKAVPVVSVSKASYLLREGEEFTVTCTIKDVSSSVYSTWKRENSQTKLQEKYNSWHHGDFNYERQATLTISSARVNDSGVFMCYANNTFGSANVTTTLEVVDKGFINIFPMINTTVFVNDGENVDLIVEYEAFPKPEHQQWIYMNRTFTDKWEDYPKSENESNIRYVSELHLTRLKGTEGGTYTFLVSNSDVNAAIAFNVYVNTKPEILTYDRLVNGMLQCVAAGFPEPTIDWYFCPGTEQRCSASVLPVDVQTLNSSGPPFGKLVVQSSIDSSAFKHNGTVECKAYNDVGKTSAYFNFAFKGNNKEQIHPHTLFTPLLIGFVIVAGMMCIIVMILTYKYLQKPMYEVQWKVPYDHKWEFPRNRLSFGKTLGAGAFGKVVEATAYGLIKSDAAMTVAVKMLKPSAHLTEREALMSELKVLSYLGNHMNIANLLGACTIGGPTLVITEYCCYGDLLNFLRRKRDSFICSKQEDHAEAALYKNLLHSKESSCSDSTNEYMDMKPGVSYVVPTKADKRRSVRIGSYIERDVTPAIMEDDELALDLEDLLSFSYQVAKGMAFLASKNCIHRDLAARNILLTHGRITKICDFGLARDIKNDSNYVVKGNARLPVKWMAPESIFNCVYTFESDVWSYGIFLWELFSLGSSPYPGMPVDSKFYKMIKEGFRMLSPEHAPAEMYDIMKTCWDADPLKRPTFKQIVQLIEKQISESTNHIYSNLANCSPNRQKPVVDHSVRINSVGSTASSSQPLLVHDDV

Row | SMILES | IC50 [1] [nM] | IC50 [2] [nM]
1 | CCn1c(=O)c(-c2cc(NC(=O)Nc3cccc4ccccc34)c(F)cc2C)cc2cnc(NC)cc21 [Example 1, 1-(5-(1-ethyl-7-(methylamino)-2-oxo-1,2-dihydro-1,6-naphthyridin-3-yl)-2-fluoro-4-methylphenyl)-3-(naphthalen-1-yl)urea] | < 10 | 10 to 100
2 | CCn1c(=O)c(-c2cc(NC(=O)Nc3cccc(F)c3F)c(F)cc2Cl)cc2cnc(NC)cc21 [Example 4, 1-(4-chloro-5-(1-ethyl-7-(methylamino)-2-oxo-1,2-dihydro-1,6-naphthyridin-3-yl)-2-fluorophenyl)-3-(2,3-difluorophenyl)urea] | 10 to 100 | 10 to 100
3 | CCn1c(=O)c(-c2cc(NC(=O)Nc3cccc4ccccc34)c(F)cc2Cl)cc2cnc(NC)cc21 [Example 6, 1-(4-chloro-5-(1-ethyl-7-(methylamino)-2-oxo-1,2-dihydro-1,6-naphthyridin-3-yl)-2-fluorophenyl)-3-(naphthalen-1-yl)urea] | < 10 | < 10
4 | CNc1cc2c(cn1)cc(-c1cc(NC(=O)Nc3csc4ccccc34)c(F)cc1F)c(=O)n2C [Example 14, 1-(benzo[b]thiophen-3-yl)-3-(2,4-difluoro-5-(1-methyl-7-(methylamino)-2-oxo-1,2-dihydro-1,6-naphthyridin-3-yl)phenyl)urea] | 10 to 100 | < 10
5 | CCn1c(=O)c(-c2cc(NC(=O)Nc3cccc(F)c3)c(F)cc2F)cc2cnc(NC)cc21 [Example 15, 1-(5-(1-ethyl-7-(methylamino)-2-oxo-1,2-dihydro-1,6-naphthyridin-3-yl)-2,4-difluorophenyl)-3-(3-fluorophenyl)urea] | 10 to 100 | 10 to 100
6 | CCn1c(=O)c(-c2cc(NC(=O)Nc3ccccc3)c(F)cc2F)cc2cnc(NC)cc21 [Example 16, 1-(5-(1-ethyl-7-(methylamino)-2-oxo-1,2-dihydro-1,6-naphthyridin-3-yl)-2,4-difluorophenyl)-3-phenylurea] | 100 to 1000 | 100 to 1000
7 | CCn1c(=O)c(-c2cc(NC(=O)Nc3cccc(F)c3)c(F)cc2Cl)cc2cnc(N)cc21 [Example 20, 1-(5-(7-amino-1-ethyl-2-oxo-1,2-dihydro-1,6-naphthyridin-3-yl)-4-chloro-2-fluorophenyl)-3-(3-fluorophenyl)urea] | 10 to 100 | 100 to 1000
8 | CNc1cc2c(cn1)cc(-c1cc(NC(=O)Nc3ccccc3)c(F)cc1Cl)c(=O)n2C(C)C [Example 22, 1-(4-chloro-2-fluoro-5-(1-isopropyl-7-(methylamino)-2-oxo-1,2-dihydro-1,6-naphthyridin-3-yl)phenyl)-3-phenylurea] | 10 to 100 | 10 to 100
9 | CCn1c(=O)c(-c2cc(NC(=O)Nc3cccc(F)c3)c(F)cc2Cl)cc2cnc(NC)cc21 [Example 24, 1-[4-chloro-5-(1-ethyl-7-methylamino-2-oxo-1,2-dihydro-[1,6]naphthyridin-3-yl)-2-fluoro-phenyl]-3-(3-fluoro-phenyl)-urea] | < 10 | 10 to 100
10 | CCn1c(=O)c(-c2cc(NC(=O)Nc3ccccc3F)c(F)cc2Cl)cc2cnc(NC)cc21 [Example 25, 1-[4-chloro-5-(1-ethyl-7-methylamino-2-oxo-1,2-dihydro-[1,6]naphthyridin-3-yl)-2-fluoro-phenyl]-3-(2-fluoro-phenyl)-urea] | 10 to 100 | 10 to 100
11 | CCn1c(=O)c(-c2cc(NC(=O)Nc3ccccc3)c(F)cc2Cl)cc2cnc(NCCOC)cc21 [Example 27, 1-(4-chloro-5-(1-ethyl-7-(2-methoxyethylamino)-2-oxo-1,2-dihydro-1,6-naphthyridin-3-yl)-2-fluorophenyl)-3-phenylurea] | 10 to 100 | 10 to 100
12 | CCn1c(=O)c(-c2cc(NC(=O)Nc3cccc(F)c3)c(F)cc2Cl)cc2cnc(NCCOC)cc21 [Example 28, 1-(4-chloro-5-(1-ethyl-7-(2-methoxyethylamino)-2-oxo-1,2-dihydro-1,6-naphthyridin-3-yl)-2-fluorophenyl)-3-(3-fluorophenyl)urea] | 10 to 100 | 100 to 1000
13 | CCn1c(=O)c(-c2cc(NC(=O)Nc3csc4ccccc34)c(F)cc2Cl)cc2cnc(NC)cc21 [Example 32] | < 10 | < 10
14 | CCn1c(=O)c(-c2cc(NC(=O)Nc3ccccc3)ccc2Cl)cc2cnc(NC)cc21 [Example 33, 1-(4-chloro-3-(1-ethyl-7-(methylamino)-2-oxo-1,2-dihydro-1,6-naphthyridin-3-yl)phenyl)-3-phenylurea] | 10 to 100 | –
15 | CCn1c(=O)c(-c2cc(NC(=O)Nc3ccccc3)c(F)cc2F)cc2cnc(NCCOC)cc21 [Example 36, 1-(5-(1-ethyl-7-(2-methoxyethylamino)-2-oxo-1,2-dihydro-1,6-naphthyridin-3-yl)-2,4-difluorophenyl)-3-phenylurea] | 100 to 1000 | 100 to 1000
16 | CNc1cc2c(cn1)cc(-c1cc(NC(=O)Nc3cccc(F)c3)c(F)cc1C)c(=O)n2C(C)C [Example 41, 1-(2-fluoro-5-(1-isopropyl-7-(methylamino)-2-oxo-1,2-dihydro-1,6-naphthyridin-3-yl)-4-methylphenyl)-3-(3-fluorophenyl)urea] | 10 to 100 | 100 to 1000
17 | CCn1c(=O)c(-c2cc(NC(=O)Nc3cccc(F)c3)c(F)cc2C)cc2cnc(NC)cc21 [Example 44, 1-(5-(1-ethyl-7-(methylamino)-2-oxo-1,2-dihydro-1,6-naphthyridin-3-yl)-2-fluoro-4-methylphenyl)-3-(3-fluorophenyl)urea] | < 10 | 10 to 100
18 | CCn1c(=O)c(-c2cc(NC(=O)Nc3cccc(F)c3)c(F)cc2Br)cc2cnc(NC)cc21 [Example 50, 1-(4-bromo-5-(1-ethyl-7-(methylamino)-2-oxo-1,2-dihydro-1,6-naphthyridin-3-yl)-2-fluorophenyl)-3-(3-fluorophenyl)urea] | < 10 | 100 to 1000
19 | CCn1c(=O)c(-c2cc(NC(=O)Nc3ccccc3)c(F)cc2Br)cc2cnc(NCCOC)cc21 [Example 51, 1-(4-bromo-5-(1-ethyl-7-(2-methoxyethylamino)-2-oxo-1,2-dihydro-1,6-naphthyridin-3-yl)-2-fluorophenyl)-3-phenylurea] | 10 to 100 | 100 to 1000
20 | CCn1c(=O)c(-c2cc(NC(=O)Nc3ccccc3)c(F)cc2Cl)cc2cnc(NC(C)=O)cc21 [Example 54, 1-(5-(7-acetamido-1-ethyl-2-oxo-1,2-dihydro-1,6-naphthyridin-3-yl)-4-chloro-2-fluorophenyl)-3-phenylurea] | 10 to 100 | 10 to 100
21 | CCn1c(=O)c(-c2cc(NC(=O)Nc3cc(F)cc(F)c3)c(F)cc2Cl)cc2cnc(NC)cc21 [Example 55, 1-(4-chloro-5-(1-ethyl-7-(methylamino)-2-oxo-1,2-dihydro-1,6-naphthyridin-3-yl)-2-fluorophenyl)-3-(3,5-difluorophenyl)urea] | 10 to 100 | > 1000
22 | CCn1c(=O)c(-c2cc(NC(=O)Nc3ccccc3)c(F)cc2Br)cc2cnc(N)cc21 [Example 57, 1-(5-(7-amino-1-ethyl-2-oxo-1,2-dihydro-1,6-naphthyridin-3-yl)-4-bromo-2-fluorophenyl)-3-phenylurea] | 10 to 100 | 100 to 1000
23 | CCn1c(=O)c(-c2cc(NC(=O)Nc3cccc(F)c3)c(F)cc2C)cc2cnc(N)cc21 [Example 58, 1-(5-(7-amino-1-ethyl-2-oxo-1,2-dihydro-1,6-naphthyridin-3-yl)-2-fluoro-4-methylphenyl)-3-(3-fluorophenyl)urea] | 10 to 100 | 100 to 1000
24 | CCn1c(=O)c(-c2cc(NC(=O)Nc3ccccc3)c(F)cc2C)cc2cnc(NC(=O)N3CCC3)cc21 [Example 110, N-(1-ethyl-3-(4-fluoro-2-methyl-5-(3-phenylureido)phenyl)-2-oxo-1,2-dihydro-1,6-naphthyridin-7-yl)azetidine-1-carboxamide] | – | < 10

— patent US8940756B2, “Dihydronaphthyridines and related compounds useful as kinase inhibitors for the treatment of proliferative diseases” (Deciphera Pharmaceuticals, Inc., priority 2012, dated 2015)
